# Results as given in patent publication US8946215B2, “Hydroxy-substituted imidazo[1,2-a]pyridinecarboxamides and their use” (Bayer Pharma Aktiengesellschaft, priority 2012, dated 2015).
# Counter-ions that a name gives are not always drawn.
# Target: T1, recombinant guanylate cyclase reporter cell line (Rattus norvegicus, UniProt P19686+P20595)
# T1 construct: expressed in transfected cells
# T1 sequence (P20595 1-619): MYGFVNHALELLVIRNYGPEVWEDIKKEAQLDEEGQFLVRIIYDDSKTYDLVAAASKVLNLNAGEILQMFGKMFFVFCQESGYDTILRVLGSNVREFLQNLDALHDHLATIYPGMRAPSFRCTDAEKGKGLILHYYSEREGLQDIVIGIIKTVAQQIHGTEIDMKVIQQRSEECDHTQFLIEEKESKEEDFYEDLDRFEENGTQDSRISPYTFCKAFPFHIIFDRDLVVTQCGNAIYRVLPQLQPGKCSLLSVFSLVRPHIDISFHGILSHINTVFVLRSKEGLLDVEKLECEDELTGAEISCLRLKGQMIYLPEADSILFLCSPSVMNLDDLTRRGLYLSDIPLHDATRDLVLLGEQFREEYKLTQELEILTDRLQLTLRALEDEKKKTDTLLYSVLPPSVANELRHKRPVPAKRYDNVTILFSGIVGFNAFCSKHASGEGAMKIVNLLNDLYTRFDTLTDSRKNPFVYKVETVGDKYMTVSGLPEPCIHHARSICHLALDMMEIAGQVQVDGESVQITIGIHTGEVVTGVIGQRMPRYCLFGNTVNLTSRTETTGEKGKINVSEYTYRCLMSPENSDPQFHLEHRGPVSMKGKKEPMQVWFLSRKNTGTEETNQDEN
# T1 sequence (P19686 1-690): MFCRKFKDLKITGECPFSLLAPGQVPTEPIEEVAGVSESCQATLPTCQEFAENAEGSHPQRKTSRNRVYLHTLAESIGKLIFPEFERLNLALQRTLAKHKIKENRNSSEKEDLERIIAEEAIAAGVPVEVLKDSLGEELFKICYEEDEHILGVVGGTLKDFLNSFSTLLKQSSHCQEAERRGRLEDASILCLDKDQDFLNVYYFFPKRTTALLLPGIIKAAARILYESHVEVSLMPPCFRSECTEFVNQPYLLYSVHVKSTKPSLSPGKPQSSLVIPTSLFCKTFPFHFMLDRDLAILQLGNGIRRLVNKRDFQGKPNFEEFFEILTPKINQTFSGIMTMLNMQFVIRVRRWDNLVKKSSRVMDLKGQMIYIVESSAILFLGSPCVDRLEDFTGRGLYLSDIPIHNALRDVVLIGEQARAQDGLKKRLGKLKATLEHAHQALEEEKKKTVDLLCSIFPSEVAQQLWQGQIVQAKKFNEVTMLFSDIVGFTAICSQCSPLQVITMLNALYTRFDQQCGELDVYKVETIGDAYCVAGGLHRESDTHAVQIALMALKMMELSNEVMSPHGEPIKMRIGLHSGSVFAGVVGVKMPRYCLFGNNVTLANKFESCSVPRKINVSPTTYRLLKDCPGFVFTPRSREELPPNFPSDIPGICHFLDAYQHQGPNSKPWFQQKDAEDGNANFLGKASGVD
# Assay: Action on recombinant guanylate cyclase reporter cell line
# Assay type: cell-based
# Details: in some cases mean values obtained from individual determinations
# Summary of the method: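 Cell-based reporter assay with recombinant guanylate cyclase expressed in a reporter cell line, per a published method. Activity reported as minimal effective concentration (MEC), in some cases as the mean of individual determinations.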
row,MEC (minimal effective concentration) [µM],SMILES
1,1.0,"CCCc1nc2c(OCC3CCCCC3)cccn2c1C(=O)N[C@@H](C)CO [Example 57, 8-(cyclohexylmethoxy)-N-[(2S)-1-hydroxypropan-2-yl]-2-propylimidazo[1,2-a]-pyridine-3-carboxamide]"
2,3.0,"CCc1nc2c(OCC3CCC3)cccn2c1C(=O)N[C@@H](C)CO [Example 58, 8-(cyclobutylmethoxy)-2-ethyl-N-[(2S)-1-hydroxypropan-2-yl]imidazo[1,2-a]pyridine-3-carboxamide formic acid salt]"
3,3.0,"C[C@@H](CO)NC(=O)c1cnc2c(OCC3CCCCC3)cccn12 [Example 59, 8-(cyclohexylmethoxy)-N-[(2S)-1-hydroxypropan-2-yl]imidazo[1,2-a]pyridine-3-carboxamide]"
4,0.1,"CCCC[C@H](CO)NC(=O)c1c(C)nc2c(OCc3c(F)cccc3F)cc(CC)cn12 [Example 60, 8-[(2,6-difluorobenzyl)oxy]-6-ethyl-N-[(2R)-1-hydroxyhexan-2-yl]-2-methylimidazo[1,2-a]pyridine-3-carboxamide]"
5,1.0,"CCCC[C@H](CO)NC(=O)c1c(C)nc2c(OCc3c(F)cccc3F)cc(C3CC3)cn12 [Example 61, 6-cyclopropyl-8-[(2,6-difluorobenzyl)oxy]-N-[(2R)-1-hydroxyhexan-2-yl]-2-methylimidazo[1,2-a]pyridine-3-carboxamide]"
6,0.3,"CCCC[C@H](CO)NC(=O)c1cnc2c(OCc3c(F)cccc3F)cccn12 [Example 62, 8-[(2,6-difluorobenzyl)oxy]-N-[(2R)-1-hydroxyhexan-2-yl]imidazo[1,2-a]pyridine-3-carboxamide]"
7,3.0,"CCCC[C@H](CO)NC(=O)c1c(C)nc2c(OCc3c(F)cccc3F)cc(N3CCOCC3)cn12 [Example 63, 8-[(2,6-difluorobenzyl)oxy]-N-[(2R)-1-hydroxyhexan-2-yl]-2-methyl-6-(morpholin-4-yl)imidazo[1,2-a]pyridine-3-carboxamide]"
8,3.0,"CCCC[C@H](CO)NC(=O)c1c(C)nc2c(OCc3c(F)cccc3F)cc(N3CCCC3)cn12 [Example 64, 8-[(2,6-difluorobenzyl)oxy]-N-[(2R)-1-hydroxyhexan-2-yl]-2-methyl-6-(pyrrolidin-1-yl)imidazo[1,2-a]pyridine-3-carboxamide]"
9,0.03,"CCCC[C@H](CO)NC(=O)c1c(C)nc2c(OCc3c(F)cccc3F)cc(Br)cn12 [Example 65, 6-bromo-8-[(2,6-difluorobenzyl)oxy]-N-[(2R)-1-hydroxyhexan-2-yl]-2-methylimidazo[1,2-a]pyridine-3-carboxamide]"
10,0.03,"CCC[C@H](CO)NC(=O)c1c(C)nc2c(OCC3CCCCC3)cccn12 [Example 67, 8-(cyclohexylmethoxy)-N-[(2R)-1-hydroxypentan-2-yl]-2-methylimidazo[1,2-a]pyridine-3-carboxamide]"
11,0.03,"Cc1nc2c(OCC3CCCCC3)cccn2c1C(=O)NC[C@H](O)CO [Example 68, 8-(cyclohexylmethoxy)-N-[(2S)-2,3-dihydroxypropyl]-2-methylimidazo[1,2-a]pyridine-3-carboxamide]"
12,0.1,"CC[C@H](CO)NC(=O)c1c(C)nc2c(OCC3CCCCC3)cccn12 [Example 72, 8-(cyclohexylmethoxy)-N-[(2R)-1-hydroxybutan-2-yl]-2-methylimidazo[1,2-a]pyridine-3-carboxamide]"
13,0.2,"Cc1nc2c(OCC3CCCCC3)cccn2c1C(=O)NCCCCO [Example 74, 8-(cyclohexylmethoxy)-N-(4-hydroxybutyl)-2-methylimidazo[1,2-a]pyridine-3-carboxamide]"
14,0.22,"Cc1nc2c(OCC3CCCCC3)cccn2c1C(=O)N[C@@H](C)CO [Example 75, 8-(cyclohexylmethoxy)-N-[(2S)-1-hydroxypropan-2-yl]-2-methylimidazo[1,2-a]pyridine-3-carboxamide]"
15,0.3,"Cc1nc2c(OCC3CCCCC3)cccn2c1C(=O)NCCO [Example 76, 8-(cyclohexylmethoxy)-N-(2-hydroxyethyl)-2-methylimidazo[1,2-a]pyridine-3-carboxamide formate]"
16,0.3,"Cc1nc2c(OCC3CCCCC3)cccn2c1C(=O)NC(CO)(CO)CO [Example 77, 8-(cyclohexylmethoxy)-N-[1,3-dihydroxy-2-(hydroxymethyl)propan-2-yl]-2-methylimidazo[1,2-a]pyridine-3-carboxamide formate]"
17,0.3,"COCC(O)CNC(=O)c1c(C)nc2c(OCC3CCCCC3)cccn12 (centres unmarked) [Example 79, 8-(cyclohexylmethoxy)-N-(2-hydroxy-3-methoxypropyl)-2-methylimidazo[1,2-a]pyridine-3-carboxamide]"
18,0.3,"Cc1nc2c(OCC3CCCCC3)cccn2c1C(=O)NC[C@@H](O)CO [Example 80, 8-(cyclohexylmethoxy)-N-[(2R)-2,3-dihydroxypropyl]-2-methylimidazo[1,2-a]pyridine-3-carboxamide]"
19,0.3,"Cc1nc2c(OCC3CCCCC3)cccn2c1C(=O)NCCCO [Example 82, 8-(cyclohexylmethoxy)-N-(3-hydroxypropyl)-2-methylimidazo[1,2-a]pyridine-3-carboxamide]"
20,0.3,"Cc1nc2c(OCC3CCCCC3)cccn2c1C(=O)NC1CCCC1O (centres unmarked) [Example 83, 8-(cyclohexylmethoxy)-N-(2-hydroxycyclopentyl)-2-methylimidazo[1,2-a]pyridine-3-carboxamide]"
21,0.3,"Cc1nc2c(OCC3CCCCC3)cccn2c1C(=O)NC(C)CO (centres unmarked) [Example 84, 8-(cyclohexylmethoxy)-N-(1-hydroxypropan-2-yl)-2-methylimidazo[1,2-a]pyridine-3-carboxamide]"
22,0.38,"Cc1nc2c(OCC3CCCCC3)cccn2c1C(=O)NC(CO)CO [Example 85, 8-(cyclohexylmethoxy)-N-(1,3-dihydroxypropan-2-yl)-2-methylimidazo[1,2-a]pyridine-3-carboxamide]"
23,0.65,"Cc1nc2c(OCC3CCCCC3)cccn2c1C(=O)NCCOCCO [Example 86, 8-(cyclohexylmethoxy)-N-[2-(2-hydroxyethoxy)ethyl]-2-methylimidazo[1,2-a]-pyridine-3-carboxamide]"
24,1.0,"Cc1nc2c(OCC3CCCCC3)cccn2c1C(=O)NC(C)(C)C(C)O (centres unmarked) [Example 87, 8-(cyclohexylmethoxy)-N-(3-hydroxy-2-methylbutan-2-yl)-2-methylimidazo[1,2-a]pyridine-3-carboxamide]"
25,1.0,"CC[C@@H](CO)NC(=O)c1c(C)nc2c(OCC3CCCCC3)cccn12 [Example 88, 8-(cyclohexylmethoxy)-N-[(2S)-1-hydroxybutan-2-yl]-2-methylimidazo[1,2-a]pyridine-3-carboxamide]"
26,1.0,"CCC[C@@H](CO)NC(=O)c1c(C)nc2c(OCC3CCCCC3)cccn12 [Example 89, 8-(cyclohexylmethoxy)-N-[(2S)-1-hydroxypentan-2-yl]-2-methylimidazo[1,2-a]pyridine-3-carboxamide]"
